Measured values from patent US20040220081A1, “Nanoparticulate bioactive agents” (Spherics, Inc., priority 2002, published 2004).

What was measured:
in vivo = conditions: rat
[1] = Electron microscopy of precipitated particles of other drugs; assay type: physicochemical; conditions: 3% drug in dichloromethane precipitated in 100 vol. pentane, needles
From the text: In other experiments, 3% of the drug carbamazepine in dichloromethane was precipitated in 100 vol. of pentane. By electron microscopy, the particles were predominantly needles, about 1 micron in diameter by 50 microns in length. A few 1 micron spherical particles were also observed. A similar experiment using the drug itraconazole produced generally spherical particles in the range of about 0.1 to 0.5 microns diameter, by electron microscopy.

Row | SMILES | bioavailability (in vivo) [%] | particle diameter [1] | particle length [1] [microns]
1 | CC(=O)O[C@H]1C(=O)[C@@]2(C)[C@H]([C@H](OC(=O)c3ccccc3)[C@]3(O)C[C@H](OC(=O)[C@H](O)[C@@H](NC(=O)c4ccccc4)c4ccccc4)C(C)=C1C3(C)C)[C@]1(OC(C)=O)CO[C@@H]1C[C@@H]2O [(e), paclitaxel] | 0.7 | – | –
2 | NC(=O)N1c2ccccc2C=Cc2ccccc21 [carbamazepine] | – | about 1 micron | ~50
